According to US20260062422A1 (Halda Therapeutics OpCo, Inc., priority 2022, published 2026):

Tests used:
T47D cells = test: Cellular growth inhibition assay for T47D cells, CellTiter-Glo; type: cell-based, human; conditions: Homo sapiens, T47D, 72 h, 72 hours treatment, CellTiter-Glo 2.0 cell viability
Summary of the method: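 Luminescence from CellTiter-Glo 2.0 after 72 h of compound exposure gives the viability signal. Cells grew in insulin-supplemented (0.2 units/mL) DMEM with 10% FBS and were treated one day after seeding at 0.5% DMSO. GI50 values come from four-parameter nonlinear regression.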

VCaP cells = test: Cellular growth inhibition assay for VCaP cells, CellTiter-Glo; type: cell-based, human; conditions: Homo sapiens, VCaP, 72 h, 72 hours treatment, CellTiter-Glo 2.0
Summary of the method: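 GI50 values come from four-parameter curve fits of luminescence data normalized to a zero baseline. Compound, in medium with 0.5% DMSO, was added one day after plating and left for 72 h before CellTiter-Glo 2.0 addition.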

[1] = test system: T-Rex 293 cell line SC3 cells lacking increased expression of androgen receptor protein; test: Cellular growth inhibition, T-Rex 293 SC3 cells without doxycycline, CellTiter-Glo; type: cell-based; conditions: T-Rex 293 SC3 cells not exposed to doxycycline, CellTiter-Glo 2.0
Summary of the method: (§1)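 SC3 is a T-Rex 293 clone stably transfected with wild-type androgen receptor in pcDNA4/TO, inducible by 10 ng/mL doxycycline. Cells were grown in phenol red-free DMEM with 10% charcoal-dextran FBS, with or without doxycycline, dosed 24 h after seeding (0.5% DMSO) for 72 h. Viability was read by CellTiter-Glo 2.0 luminescence and GI50 obtained from four-parameter fits.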

[2] = test system: T-Rex 293 cell line SC3 cells having increased expression of androgen receptor protein due to exposure to doxycycline; test: Cellular growth inhibition, T-Rex 293 SC3 cells with doxycycline (androgen receptor induced), CellTiter-Glo; type: cell-based; conditions: T-Rex 293 SC3 cells with 10 ng/mL doxycycline (increased androgen receptor expression)
Summary of the method: as §1

| SMILES | GI50 (T47D cells) [nM] | GI50 (VCaP cells) [nM] | GI50 ([1]; 72 h) [nM] | GI50 ([2]; 72 h) [nM] | GI50 ([1]; 72 hours) [nM] | GI50 ([2]; 72 hours) [nM] |
| --- | --- | --- | --- | --- | --- | --- |
| Cc1sc2c(c1C)C(c1ccc(N3CCC4(CC3)CCN(c3ncc(C(=O)N[C@H]5C(C)(C)[C@H](Oc6ccc(C#N)c(Cl)c6)C5(C)C)cn3)C4)cc1)=NC(Cc1ncco1)c1nnc(C)n1-2 (some centres unmarked) [Compound I-643] | < 500 | < 500 | < 500 | < 500 |  |  |
| Cc1sc2c(c1C)C(c1ccc(N3CCC4(CC3)CCN(c3ncc(C(=O)N[C@H]5C(C)(C)[C@H](Oc6ccc(C#N)c(Cl)c6)C5(C)C)cn3)CC4)cc1)=N[C@@H](Cc1ncco1)c1nnc(C)n1-2 [Compound I-645] | < 500 | < 500 | > 3000 | < 500 |  |  |
| Cc1sc2c(c1C)C(c1ccc(NC[C@@H]3CN(c4ncc(C(=O)N[C@H]5C(C)(C)[C@H](Oc6ccc(C#N)c(Cl)c6)C5(C)C)cn4)CCO3)cc1)=N[C@@H](Cc1ncco1)c1nnc(C)n1-2 [Compound I-646] | < 500 | < 500 | < 500 | < 500 |  |  |
| Cc1sc2c(c1C)C(c1ccc(N3CCOC4(CCN(c5ncc(C(=O)N[C@H]6C(C)(C)[C@H](Oc7ccc(C#N)c(Cl)c7)C6(C)C)cn5)CC4)C3)cc1)=NC(Cc1ncco1)c1nnc(C)n1-2 (some centres unmarked) [Compound I-647] | < 500 | > 3000 | > 3000 | < 500 |  |  |
| Cc1sc2c(c1C)C(c1ccc(N3CC[C@@H](CNc4ncc(C(=O)N[C@H]5C(C)(C)[C@H](Oc6ccc(C#N)c(Cl)c6)C5(C)C)cn4)C3)cc1)=NC(Cc1ncco1)c1nnc(C)n1-2 (some centres unmarked) [Compound I-648] | < 500 | < 500 | < 500 | < 500 |  |  |
| Cc1sc2c(c1C)C(c1ccc(N[C@H]3CC[C@H](CNc4ncc(C(=O)N[C@H]5C(C)(C)[C@H](Oc6ccc(C#N)c(Cl)c6)C5(C)C)cn4)CC3)cc1)=N[C@@H](Cc1ncco1)c1nnc(C)n1-2 [Compound I-649] | < 500 | < 500 | < 500 | < 500 |  |  |
| Cc1sc2c(c1C)C(c1ccc(N3CCCC(CN(C)c4ncc(C(=O)N[C@H]5C(C)(C)[C@H](Oc6ccc(C#N)c(Cl)c6)C5(C)C)cn4)C3)cc1)=N[C@@H](Cc1ncco1)c1nnc(C)n1-2 (some centres unmarked) [Compound I-650] | 500 to 1500 | 500 to 1500 | > 3000 | < 500 |  |  |
| Cc1sc2c(c1C)C(c1ccc(N3CCN(C4CCN(c5ncc(C(=O)N[C@H]6C(C)(C)[C@H](Oc7ccc(C#N)c(Cl)c7)C6(C)C)cn5)CC4)CC3)cc1)=NC(Cc1ncco1)c1nnc(C)n1-2 (some centres unmarked) [Compound I-651] | < 500 | < 500 | < 500 | < 500 |  |  |
| Cc1sc2c(c1C)C(c1ccc(NCCC3CCCN(c4ncc(C(=O)N[C@H]5C(C)(C)[C@H](Oc6ccc(C#N)c(Cl)c6)C5(C)C)cn4)C3)cc1)=N[C@@H](Cc1ncco1)c1nnc(C)n1-2 (some centres unmarked) [Compound I-652] | < 500 | < 500 | < 500 | < 500 |  |  |
| Cc1sc2c(c1C)C(c1ccc(N[C@@H]3CCC[C@H](Nc4ncc(C(=O)N[C@H]5C(C)(C)[C@H](Oc6ccc(C#N)c(Cl)c6)C5(C)C)cn4)C3)cc1)=NC(Cc1ncco1)c1nnc(C)n1-2 (some centres unmarked) [Compound I-653] | < 500 | < 500 | < 500 | < 500 |  |  |
| Cc1sc2c(c1C)C(c1ccc(N3C4CC(=O)CC3CN(c3ncc(C(=O)N[C@H]5C(C)(C)[C@H](Oc6ccc(C#N)c(Cl)c6)C5(C)C)cn3)C4)cc1)=NC(Cc1ncco1)c1nnc(C)n1-2 (some centres unmarked) [Compound I-654] | < 500 | < 500 |  |  | < 500 | < 500 |
| Cc1sc2c(c1C)C(c1ccc(N[C@H]3CCCCN(c4ncc(C(=O)N[C@H]5C(C)(C)[C@H](Oc6ccc(C#N)c(Cl)c6)C5(C)C)cn4)C3)cc1)=NC(Cc1ncco1)c1nnc(C)n1-2 (some centres unmarked) [Compound I-655] | 500 to 1500 | 1500 to 3000 | > 3000 | < 500 |  |  |
| Cc1sc2c(c1C)C(c1ccc(N3CC4(CCN(c5ncc(C(=O)N[C@H]6C(C)(C)[C@H](Oc7ccc(C#N)c(Cl)c7)C6(C)C)cn5)C4)C3)cc1)=NC(Cc1ncco1)c1nnc(C)n1-2 (some centres unmarked) [Compound I-656] | < 500 | < 500 | 500 to 1500 | < 500 |  |  |
| Cc1sc2c(c1C)C(c1ccc(N3C[C@@H]4[C@H](C3)[C@H]4Nc3ncc(C(=O)N[C@H]4C(C)(C)[C@H](Oc5ccc(C#N)c(Cl)c5)C4(C)C)cn3)cc1)=N[C@@H](Cc1ncco1)c1nnc(C)n1-2 [Compound I-657] | < 500 | < 500 | < 500 | < 500 |  |  |
| Cc1sc2c(c1C)C(c1ccc(C3CCC4(CC3)CCN(c3ncc(C(=O)N[C@H]5C(C)(C)[C@H](Oc6ccc(C#N)c(Cl)c6)C5(C)C)cn3)C4)cc1)=N[C@@H](Cc1ncco1)c1nnc(C)n1-2 [Compound I-671, N-[3-(3-chloro-4-cyano-phenoxy)-2,2,4,4-tetramethyl-cyclobutyl]-2-[8-[4-[(9S)-4,5,13-trimethyl-9-(oxazol-2-ylmethyl)-3-thia-1,8,11,12-tetrazatricyclo[8.3.0.02,6]trideca-2(6),4,7,10,12-pentaen-7-yl]phenyl]-2-azaspiro[4.5]decan-2-yl]pyrimidine-5-carboxamide] | < 500 | < 500 | < 500 | < 500 |  |  |
| Cc1sc2c(c1C)C(c1ccc(OC3CC4(C3)CC3(CCN(c5ncc(C(=O)N[C@H]6C(C)(C)[C@H](Oc7ccc(C#N)c(Cl)c7)C6(C)C)c(Cl)n5)CC3)C4)cc1)=N[C@@H](Cc1ncco1)c1nnc(C)n1-2 [Compound I-672, 4-chloro-N-((1r,3r)-3-(3-chloro-4-cyanophenoxy)-2,2,4,4-tetramethylcyclobutyl)-2-(2-(4-((S)-2,3,9-trimethyl-6-(oxazol-2-ylmethyl)-6H-thieno[3,2-f][1,2,4]triazolo[4,3-a][1,4]diazepin-4-yl)phenoxy)-9-azadispiro[3.1.56.14]dodecan-9-yl)pyrimidine-5-carboxamide] | < 500 | < 500 | > 3000 | > 3000 |  |  |
| Cc1nc(N2CCC3(CC2)CC2(CC(Oc4ccc(C5=N[C@@H](Cc6ncco6)c6nnc(C)n6-c6sc(C)c(C)c65)cc4)C2)C3)ncc1C(=O)N[C@H]1C(C)(C)[C@H](Oc2ccc(C#N)c(Cl)c2)C1(C)C [Compound I-673, N-[3-(3-chloro-4-cyano-phenoxy)-2,2,4,4-tetramethyl-cyclobutyl]-4-methyl-2-[2-[4-[(9S)-4,5,13-trimethyl-9-(oxazol-2-ylmethyl)-3-thia-1,8,11,12-tetrazatricyclo[8.3.0.02,6]trideca-2(6),4,7,10,12-pentaen-7-yl]phenoxy]-9-azadispiro [3.1.56.14]dodecan-9-yl]pyrimidine-5-carboxamide] | < 500 | < 500 | > 3000 | < 500 |  |  |
